Among the test systems are HCC 2998; K562; HCT-15; DU-145; M14; SNB-75; IGROV-1; MDA-MB-435; T47D; NCI-H226; TK-10; A498; CCRF-CEM; MDA-N; OVCAR-5; MDA-MB-231; SK-OV-3; CAKI-1; HCT-116.
What all share (test): NCI anticancer screen, dose series, 48 h

We go through 10 compounds from ChEMBL document CHEMBL1201862, “PubChem BioAssay data set” (2004).

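The compound was tested at five concentrations on cells cultured in 96-well plates, with a 48-hour exposure period. Abbreviation: GI50, concentration required for 50% inhibition of growth.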 Calls of active or inactive are those of the source. Rule as the data show it: active = GI50 up to about 1.1 µM and inactive = higher.

For `NS(=O)(=O)c1ccc(/N=N/c2ccc(O)c(O)c2)cc1`, the GI50 was 21.2 µM (inactive) in the assay on HCC 2998; 28.7 µM (inactive) in the assay on K562; 3.18 µM in the assay on HCT-15; 31 µM (inactive) in the assay on DU-145; 24.5 µM (inactive) in the assay on M14; 25 µM (inactive) in the assay with SNB-75. The GI50 was 11.7 µM (inactive) in the assay on IGROV-1; 15.1 µM (inactive) in the assay with MDA-MB-435; 34.8 µM (inactive) with T47D; 14.5 µM (inactive) in the assay with NCI-H226; 24.6 µM (inactive) in the assay on TK-10; 24.9 µM (inactive) in the assay with A498. Further, the GI50 in the assay with CCRF-CEM was 3.56 µM (inactive); in the assay with MDA-N it was 20.6 µM (inactive); with OVCAR-5, 48.6 µM (inactive); in the assay on MDA-MB-231 it was 10.7 µM (inactive); in the assay with SK-OV-3, 23.3 µM (inactive); in the assay on CAKI-1 it was 36.2 µM (inactive). In the assay with HCT-116, the GI50 is 9.71 µM (inactive).
In the case of `C=C1c2nc3ccccc3n2C=C(c2ccccc2)N1c1ccc(Cl)cc1`, the GI50 was 65.6 µM (inactive) in the assay with HCC 2998; 51.3 µM (inactive) in the assay on K562; 33.3 µM in the assay with HCT-15; 59.8 µM (inactive) in the assay with DU-145; 17.1 µM (inactive) in the assay with M14; 5.12 µM (inactive) in the assay on SNB-75. Further, the GI50 was 10.6 µM (inactive) in the assay with IGROV-1; > 82.8 µM (inactive) in the assay with MDA-MB-435; 12.6 µM (inactive) with T47D; 29 µM (inactive) with NCI-H226; 13.4 µM (inactive) in the assay with TK-10; > 48.9 µM (inactive) with A498. The GI50 was > 100 µM (inactive) in the assay on CCRF-CEM; 78.9 µM (inactive) with MDA-N; 21.7 µM (inactive) with OVCAR-5; 17.4 µM (inactive) with MDA-MB-231; 27.3 µM (inactive) with SK-OV-3; 7.08 µM (inactive) in the assay with CAKI-1. In the assay with HCT-116, the GI50 was 18.5 µM (inactive).
Consider `CC(CCC(=O)O)C(=O)O` (stereo not given), for which the GI50 in the assay with HCC 2998 was > 100 µM (inactive); in the assay on K562 it was > 100 µM (inactive); in the assay with HCT-15, above 100 µM; with DU-145 it was > 100 µM (inactive); in the assay on M14 it was > 100 µM (inactive); in the assay with SNB-75, > 100 µM (inactive). Further, the GI50 with IGROV-1, with MDA-MB-435, in the assay with T47D, in the assay on NCI-H226, in the assay with TK-10 and with A498 was > 100 µM (inactive) throughout. Also, the GI50 with CCRF-CEM, in the assay with MDA-N, in the assay on OVCAR-5, in the assay with MDA-MB-231, with SK-OV-3 and in the assay with CAKI-1 was > 100 µM (inactive) throughout. The GI50 in the assay with HCT-116 was > 100 µM (inactive).
`CC(=O)O[C@H]1C[C@@H](OC(C)=O)[C@@](C)(O)[C@@H]2[C@@H](OC(C)=O)[C@@]3(O)[C@H](/C=C(/CO)[C@H]4O[C@H]4[C@@H](OC(C)=O)[C@@]12C)OC(=O)[C@@H]3C`: the GI50 in the assay with HCC 2998 was 8.91 µM (inactive); in the assay on K562, 17.7 µM (inactive); in the assay on HCT-15 it was 9.1 µM; with DU-145, 5.27 µM (inactive); in the assay with M14 it was 10.8 µM (inactive); in the assay with SNB-75, 5.53 µM (inactive). Further, the GI50 was 8.17 µM (inactive) with IGROV-1; 5.42 µM (inactive) with MDA-MB-435; 22.4 µM (inactive) with T47D; 9.73 µM (inactive) with NCI-H226; > 25 µM (inactive) in the assay with TK-10; > 25 µM (inactive) with A498. The GI50 is 6.59 µM (inactive) in the assay with CCRF-CEM; 3.09 µM (inactive) in the assay with MDA-N; > 25 µM (inactive) in the assay on OVCAR-5; 7.06 µM (inactive) in the assay with MDA-MB-231; 11.9 µM (inactive) in the assay on SK-OV-3; 17.7 µM (inactive) in the assay with CAKI-1. Further, the GI50 in the assay with HCT-116 is 10.3 µM (inactive).
`Cc1cc(Nc2ccc(S(=O)(=O)O)cc2)c2ccccc2n1`: the GI50 in the assay with HCC 2998 is > 100 µM (inactive); with K562, > 100 µM (inactive); in the assay on HCT-15, above 100 µM; in the assay on DU-145, > 100 µM (inactive); in the assay with M14 it was > 100 µM (inactive); in the assay on SNB-75 it was > 100 µM (inactive). For the same compound, the GI50 with IGROV-1, with MDA-MB-435, in the assay with T47D, in the assay with NCI-H226, in the assay on TK-10 and in the assay with A498 was > 100 µM (inactive) throughout. The GI50 in the assay with CCRF-CEM, in the assay on MDA-N, in the assay on OVCAR-5, with MDA-MB-231, in the assay on SK-OV-3 and in the assay with CAKI-1 was > 100 µM (inactive) each time. The GI50 with HCT-116 was > 100 µM (inactive).
Regarding `C[C@]12Cc3cnc(-c4ccccc4)nc3C[C@@H]1CC[C@@H]1[C@@H]2CC[C@@]2(C)[C@H]1CC[C@]2(C)O`, the GI50 in the assay with HCC 2998 was 14.2 µM (inactive); in the assay on K562, 2.96 µM (inactive); with HCT-15, 9.44 µM; in the assay on DU-145, 17.9 µM (inactive); in the assay with M14 it was 11.1 µM (inactive); with SNB-75, 6.12 µM (inactive). In addition, the GI50 in the assay with IGROV-1 is 19.7 µM (inactive); with MDA-MB-435, 20.8 µM (inactive); with T47D, 11 µM (inactive); in the assay on NCI-H226, 26.1 µM (inactive); in the assay on TK-10, 23.2 µM (inactive); in the assay with A498, 16.3 µM (inactive). Moreover, the GI50 is 13.9 µM (inactive) with CCRF-CEM; 16.4 µM (inactive) with MDA-N; 14.3 µM (inactive) in the assay with OVCAR-5; 18.8 µM (inactive) with MDA-MB-231; 18 µM (inactive) with SK-OV-3; 4.98 µM (inactive) in the assay with CAKI-1. In addition, the GI50 in the assay on HCT-116 was 17.4 µM (inactive).
Regarding `O=[N+]([O-])c1cccc2nc3ccccc3c(NCCCN3CCOCC3)c12`, the GI50 with HCC 2998 is < 0.01 µM (active); in the assay with K562, 0.015 µM (active); in the assay on HCT-15 it was below 0.0104 µM; in the assay on DU-145, < 0.01 µM (active); in the assay on M14, < 0.0124 µM (active); in the assay with SNB-75 it was 0.0387 µM (active). The GI50 with IGROV-1 was 0.0217 µM (active); with MDA-MB-435, < 0.0117 µM (active); with T47D, 0.0355 µM (active); in the assay with NCI-H226, 0.0213 µM (active); in the assay with TK-10, 0.029 µM (active); in the assay with A498, < 0.0146 µM (active). The GI50 with CCRF-CEM was < 0.0199 µM (active); in the assay with MDA-N, < 0.01 µM (active); with OVCAR-5, 0.0287 µM (active); in the assay on MDA-MB-231, 0.0189 µM (active); in the assay with SK-OV-3, 0.0362 µM (active); with CAKI-1, 0.0221 µM (active). Further, in the assay on HCT-116, the GI50 is < 0.01 µM (active).
Consider `CC(C)(C)OC(=O)NC(CCC(=O)OCc1ccccc1)C(=O)NCCCO` (stereo not given), for which the GI50 in the assay with HCC 2998 is > 100 µM (inactive); in the assay on K562, > 100 µM (inactive); in the assay with HCT-15, above 100 µM; in the assay with DU-145 it was > 100 µM (inactive); in the assay with M14, > 100 µM (inactive); in the assay on SNB-75 it was > 100 µM (inactive). For the same compound, the GI50 in the assay with IGROV-1, in the assay on MDA-MB-435, in the assay with T47D, in the assay with NCI-H226, with TK-10 and in the assay on A498 was > 100 µM (inactive) throughout. Moreover, the GI50 in the assay on CCRF-CEM, in the assay on MDA-N, with OVCAR-5, in the assay on MDA-MB-231, in the assay with SK-OV-3 and in the assay with CAKI-1 was > 100 µM (inactive) throughout. Moreover, the GI50 with HCT-116 was > 100 µM (inactive).
`CCCCc1nc(C)oc1C(C)C`: the GI50 is > 100 µM (inactive) in the assay on HCC 2998; > 100 µM (inactive) with K562; above 100 µM in the assay with HCT-15; > 100 µM (inactive) in the assay on DU-145; > 100 µM (inactive) in the assay on M14; > 100 µM (inactive) in the assay with SNB-75. In addition, the GI50 in the assay with IGROV-1 is > 100 µM (inactive); with MDA-MB-435, > 100 µM (inactive); in the assay on T47D, > 100 µM (inactive); in the assay with NCI-H226, 40.7 µM (inactive); with TK-10, > 100 µM (inactive); in the assay with A498, > 100 µM (inactive). For the same compound, the GI50 in the assay on CCRF-CEM, in the assay with MDA-N, with OVCAR-5, in the assay on MDA-MB-231, with SK-OV-3 and in the assay with CAKI-1 was > 100 µM (inactive) each time. For the same compound, the GI50 in the assay with HCT-116 is > 100 µM (inactive).
Take `C1CSCCCSCCCSCCCSCCCSC1`: the GI50 in the assay with HCC 2998 is 38 µM (inactive); in the assay on K562, 21.4 µM (inactive); with HCT-15 it was 40.6 µM; in the assay on DU-145 it was 46.5 µM (inactive); in the assay on M14, 29.7 µM (inactive); in the assay with SNB-75 it was 20.1 µM (inactive). Also, the GI50 in the assay with IGROV-1 is 31.1 µM (inactive); with MDA-MB-435, 41.9 µM (inactive); in the assay with T47D, 17.2 µM (inactive); in the assay with NCI-H226, 25.5 µM (inactive); in the assay on TK-10, 37.2 µM (inactive); with A498, 36.2 µM (inactive). Further, the GI50 in the assay on CCRF-CEM was 8.55 µM (inactive); in the assay with MDA-N, 32.3 µM (inactive); with OVCAR-5 it was 57.8 µM (inactive); in the assay with MDA-MB-231 it was 29.2 µM (inactive); in the assay with SK-OV-3, 34.4 µM (inactive); in the assay with CAKI-1, 17.7 µM (inactive). In addition, in the assay with HCT-116, the GI50 was 31.2 µM (inactive).
